In ChEMBL document CHEMBL5537196, “Discovery of KIN-3248, An Irreversible, Next Generation FGFR Inhibitor for the Treatment of Advanced Tumors Harboring FGFR2 and/or FGFR3 Gene Alterations” (J Med Chem, 2024):

Assays:
[1] = AUC (0 to 24 hrs) in Beagle dog at 10 mg/kg,po administrated at 0.25 to 24 hrs by LC-MS/MS analysis; type: ADME, organism-based, Canis lupus familiaris; conditions: in vivo, time 0.25-24 hrs
[2] = Cmax in Beagle dog at 10 mg/kg,po administrated at 0.25 to 24 hrs by LC-MS/MS analysis; type: ADME, organism-based, Canis lupus familiaris; conditions: in vivo, time 0.25-24 hrs
[3] = Oral bioavailability in Sprague-Dawley rat at 15 mg/kg administrated at 0.25 to 24 hrs by LC-MS/MS analysis; type: ADME, organism-based; conditions: in vivo, time 0.25-24 hrs
[4] = Half life in Beagle dog at 5 mg/kg,iv administrated at 0.25 to 24 hrs by LC-MS/MS analysis; type: ADME, organism-based, Canis lupus familiaris; conditions: in vivo, time 0.25-24 hrs
[5] = Total clearance in Beagle dog at 5 mg/kg,iv administrated at 0.25 to 24 hrs by LC-MS/MS analysis; type: ADME, organism-based, Canis lupus familiaris; conditions: in vivo, time 0.25-24 hrs
[6] = Intrinsic clearance in human liver microsomes; type: ADME, Microsome; conditions: read-out: CLH
[7] = Half life in Sprague-Dawley rat at 5 mg/kg,iv administrated at 0.25 to 24 hrs by LC-MS/MS analysis; type: ADME, organism-based; conditions: in vivo, time 0.25-24 hrs
[8] = Oral bioavailability in Beagle dog at 10 mg/kg administrated at 0.25 to 24 hrs by LC-MS/MS analysis; type: ADME, organism-based, Canis lupus familiaris; conditions: in vivo, time 0.25-24 hrs
[9] = Intrinsic clearance in human hepatocyte measured per 10^6 cells; type: ADME, cell-based; conditions: hepatocytes, read-out: CLH
[10] = Cmax in Sprague-Dawley rat at 15 mg/kg,po administrated at 0.25 to 24 hrs by LC-MS/MS analysis; type: ADME, organism-based; conditions: in vivo, time 0.25-24 hrs
[11] = AUC (0 to 24 hrs) in Sprague-Dawley rat at 15 mg/kg,po administrated at 0.25 to 24 hrs by LC-MS/MS analysis; type: ADME, organism-based; conditions: in vivo, time 0.25-24 hrs
[12] = Total clearance in Sprague-Dawley rat at 5 mg/kg,iv administrated at 0.25 to 24 hrs by LC-MS/MS analysis; type: ADME, organism-based; conditions: in vivo, time 0.25-24 hrs
SNU-16 = test: Antiproliferative activity against human SNU-16 cells assessed as inhibition of cell growth incubated for 5 days by Cell-titer glo assay; conditions: SNU-16, 120 h
[13] = AUC (0 to 24 hrs) in Beagle dog at 15 mg/kg,po administrated at 0.25 to 24 hrs by LC-MS/MS analysis; type: ADME, organism-based, Canis lupus familiaris; conditions: in vivo, time 0.25-24 hrs
[14] = Antiproliferative activity against human ICC13-7 cells expressing FGFR2 V565F mutant assessed as inhibition of cell growth incubated for 10 days by Cell-titer glo assay; conditions: ICC13-7, 240 h
[15] = Antiproliferative activity against human ICC13-7 cells expressing FGFR2 N550K mutant assessed as inhibition of cell growth incubated for 10 days by Cell-titer glo assay; conditions: ICC13-7, 240 h
[16] = Oral bioavailability in Beagle dog at 15 mg/kg administrated at 0.25 to 24 hrs by LC-MS/MS analysis; type: ADME, organism-based, Canis lupus familiaris; conditions: in vivo, time 0.25-24 hrs
[17] = Cmax in Beagle dog at 15 mg/kg,po administrated at 0.25 to 24 hrs by LC-MS/MS analysis; type: ADME, organism-based, Canis lupus familiaris; conditions: in vivo, time 0.25-24 hrs
[18] = Antiproliferative activity against human ICC13-7 cells assessed as inhibition of cell growth incubated for 3 days by Cell-titer glo assay; conditions: ICC13-7, 72 h
CC-LP-1 [19] = test: Antiproliferative activity against human CC-LP-1 cells assessed as inhibition of cell growth incubated for 3 days by Cell-titer glo assay; conditions: CC-LP-1, 72 h
CC-LP-1 [20] = test: Antiproliferative activity against human CC-LP-1 cells expressing FGFR2 V565F mutant assessed as inhibition of cell growth incubated for 3 days by Cell-titer glo assay; conditions: CC-LP-1, 72 h
CC-LP-1 [21] = test: Antiproliferative activity against human CC-LP-1 cells expressing FGFR2 N550K mutant assessed as inhibition of cell growth incubated for 3 days by Cell-titer glo assay; conditions: CC-LP-1, 72 h
RT-112 [22] = test: Antiproliferative activity against human RT-112 cells expressing FGFR3 K650M mutant assessed as inhibition of cell growth incubated for 5 days by Cell-titer glo assay; conditions: RT-112, 120 h
RT-112 [23] = test: Antiproliferative activity against human RT-112 cells expressing FGFR3 N540K mutant assessed as inhibition of cell growth incubated for 5 days by Cell-titer glo assay; conditions: RT-112, 120 h
RT-112 [24] = test: Antiproliferative activity against human RT-112 cells assessed as inhibition of cell growth incubated for 5 days by Cell-titer glo assay; conditions: RT-112, 120 h
RT-112 [25] = test: Antiproliferative activity against human RT-112 cells expressing FGFR3 assessed as inhibition of cell growth incubated for 5 days by Cell-titer glo assay; conditions: RT-112, 120 h
CC-LP-1 [26] = test: Antiproliferative activity against human CC-LP-1 cells expressing FGFR2 N550H mutant assessed as inhibition of cell growth incubated for 3 days by Cell-titer glo assay; type: functional, cell-based; conditions: CC-LP-1, 72 h
RT-112 [27] = test: Antiproliferative activity against human RT-112 cells expressing FGFR3 V555M mutant assessed as inhibition of cell growth incubated for 5 days by Cell-titer glo assay; conditions: RT-112, 120 h
[28] = Antitumor activity against patient derived STO357 PDX cells xenografted in mouse assessed as tumor growth inhibition at 6 mg/kg,po administrated once daily for 3 weeks relative to control; conditions: Homo sapiens, 504 h, read-out: TGI

SMILES | bioavailability [3] [%] | half-life [4] [h] | clearance [5] [mL/min/kg] | microsomal CLint [6] [µL/min/mg] | half-life [7] [h] | hepatocyte CLint [9] [µL/min/1e6 cells] | Cmax [10] [ng/mL] | AUC(0-t) [11] [ng·h/mL] | clearance [12] [mL/min/kg] | IC50 (SNU-16) [nM] | IC50 [14] [nM] | IC50 [15] [nM] | IC50 [18] [nM] | IC50 (CC-LP-1 [19]) [nM] | IC50 (CC-LP-1 [20]) [nM] | IC50 (CC-LP-1 [21]) [nM] | IC50 (RT-112 [22]) [nM] | IC50 (RT-112 [23]) [nM] | IC50 (RT-112 [24]) [nM] | IC50 (RT-112 [25]) [nM] | other results
C=CC(=O)N1C[C@@H](n2nc(C#Cc3ccc4c(c3)ncn4C3CC3)c(C(N)=O)c2NC)C[C@@H]1COC | 31.4 | 6.46 | 31.1 | 47.4 | 4.88 | 6.6 | 1720 | 3020 | 26.1 | – | – | – | – | – | – | – | – | – | – | – | AUC(0-t) [1]: 312 ng·h/mL; Cmax [2]: 124 ng/mL; bioavailability [8]: 4.6%
C=CC(=O)N1C[C@@H](n2nc(C#Cc3cc4ncn(C5CC5)c4cc3F)c(C(N)=O)c2NC)C[C@@H]1COC | 27 | 11.4 | 31.8 | 97.1 | 8.85 | 12 | 760 | 2620 | 25 | 4 | 1.4 | 3.5 | 1.4 | 2.3 | 1.5 | 3.6 | – | – | – | – | AUC(0-t) [13]: 1700 ng·h/mL; bioavailability [16]: 23.5%; Cmax [17]: 770 ng/mL
CCN1CCN(c2ccc(Nc3cc(N(C)C(=O)Nc4c(Cl)c(OC)cc(OC)c4Cl)ncn3)cc2)CC1 [INFIGRATINIB] | – | – | – | – | – | – | – | – | – | 12.4 | > 1890 | 352 | 7.6 | 7.3 | > 2280 | 432 | 218 | 777 | 6.2 | 10 | IC50 (CC-LP-1 [26]): 28.8 nM; IC50 (RT-112 [27]): 352 nM
C=CC(=O)N1CC[C@H](n2nc(C#Cc3cc(OC)cc(OC)c3)c3c(N)ncnc32)C1 [FUTIBATINIB] | – | – | – | – | – | – | – | – | – | 4.7 | 143 | 13.8 | 1.8 | 1.3 | 105 | 5.5 | 74.3 | 73.4 | 6.7 | 19.6 | inhibition in vivo at 6 mg/kg [28]: 48%; IC50 (CC-LP-1 [26]): 1.4 nM; IC50 (RT-112 [27]): 390 nM
